Patent US20130149721A1, “Methods for Inhibiting Amyloid Precursor Protein and Beta-Amyloid Production and Accumulation” (WISCONSIN ALUMNI RESEARCH FOUNDATION, priority 2008, published 2013)

Assays:
APP translation in SN = assay: 35S-Met labeling and immunoprecipitation of newly synthesized APP in synaptoneurosomes; format: cell-based, mouse; conditions: WT SN, 40 μM anisomycin + 100 μM DHPG, 15 min
Description: WT and KO SNs (450 μl) were mixed with 25 μl Redivue Pro-Mix-L [^35S] for 5 min prior to stimulation with 25 μl 2 mM DHPG. Samples were flash frozen at the indicated times. To analyze new protein synthesis, SN lysates were cleared of free isotope, Percoll®, and sucrose by purification with the PAGEprep Advance kit according to the manufacturer's directions. Protein concentrations were determined by the BCA assay, and 15 μg protein was denatured and loaded per lane on 12% SDS gels for content analysis. Gels were dried and exposed to a phosphorimager screen to identify the results of these assays.
To specifically analyze APP synthesis, WT and KO SN lysates (500 μl) were immunoprecipitated with APP antibody. Briefly, SN lysates were precleared with protein A magnetic beads in 1 ml volumes containing 500 μl SNs, 500 μl 2×IP buffer (20 mM HEPES (pH 7.4), 400 mM NaCl, 60 mM EDTA (pH 8), and 2% Triton X-100), protease inhibitor cocktail, and 100 μl packed fresh protein A magnetic beads. For the immunoprecipitations, 10 μg anti-APP antibody (Zymed catalog number 51-2700) and fresh protein A magnetic beads were added and mixed overnight at 4° C. The beads were washed three times with IP buffer, and the final, washed pellets were suspended in 40 μl 2×SDS sample buffer and boiled for 5 min; the proteins were then separated on 12% SDS gels. The gels were transferred to a nitrocelluose membrane, dried, exposed to a phosphorimager screen, and scanned on a STORM 860 phosphorimager (Molecular Dynamics http://www6.amershambiosciences.com). APP bands at 120 kDa were quantitated with ImageQuant software (GE Healthcare Life Sciences, http://www4.amershambiosciences.com).
For mGluR5 inhibitor studies, SNs (425 μl) were preincubated with 25 μl anisomycin (40 μM final concentration) or MPEP (10 μM final concentration) for 10 min prior to the addition of 25 μl ^35S-Met for 5 min and stimulation with DHPG (100 μM final concentration) for 15 min. Samples were processed as described in the preceding paragraph.
To further assess FMRP regulation of APP levels in brain, cortical SN were prepared from WT mice and overall protein synthesis analyzed in response to DHPG (100 μM)-induced mGluR5 activation. SN were metabolically active as assessed by ^35S-Met incorporation. […]
These conclusions were tested by assessing the effects on APP translation of contacting SN with a group 1 mGluR5 antagonist, 2-methyl-6-(phenylethynyl)-pyridine (MPEP). […] To assess the effect of MPEP, a specific mGluR5 antagonist, on DHPG stimulation of de novo APP synthesis, SN were pre-treated with 10 μM MPEP for 10 min prior to the addition of ^35S-Met for 5 min and stimulation with 100 μM DHPG for 15 min. ^35S-Met-labeled APP was immunoprecipitated with anti-APP antibodies and analyzed by SDS-PAGE. […]

rat mGluR7a = rat mGluR7a (Rattus norvegicus, UniProt P35400); conditions: doses up to 10 μm; cited from earlier work
Sequence of rat mGluR7a (P35400 35-915): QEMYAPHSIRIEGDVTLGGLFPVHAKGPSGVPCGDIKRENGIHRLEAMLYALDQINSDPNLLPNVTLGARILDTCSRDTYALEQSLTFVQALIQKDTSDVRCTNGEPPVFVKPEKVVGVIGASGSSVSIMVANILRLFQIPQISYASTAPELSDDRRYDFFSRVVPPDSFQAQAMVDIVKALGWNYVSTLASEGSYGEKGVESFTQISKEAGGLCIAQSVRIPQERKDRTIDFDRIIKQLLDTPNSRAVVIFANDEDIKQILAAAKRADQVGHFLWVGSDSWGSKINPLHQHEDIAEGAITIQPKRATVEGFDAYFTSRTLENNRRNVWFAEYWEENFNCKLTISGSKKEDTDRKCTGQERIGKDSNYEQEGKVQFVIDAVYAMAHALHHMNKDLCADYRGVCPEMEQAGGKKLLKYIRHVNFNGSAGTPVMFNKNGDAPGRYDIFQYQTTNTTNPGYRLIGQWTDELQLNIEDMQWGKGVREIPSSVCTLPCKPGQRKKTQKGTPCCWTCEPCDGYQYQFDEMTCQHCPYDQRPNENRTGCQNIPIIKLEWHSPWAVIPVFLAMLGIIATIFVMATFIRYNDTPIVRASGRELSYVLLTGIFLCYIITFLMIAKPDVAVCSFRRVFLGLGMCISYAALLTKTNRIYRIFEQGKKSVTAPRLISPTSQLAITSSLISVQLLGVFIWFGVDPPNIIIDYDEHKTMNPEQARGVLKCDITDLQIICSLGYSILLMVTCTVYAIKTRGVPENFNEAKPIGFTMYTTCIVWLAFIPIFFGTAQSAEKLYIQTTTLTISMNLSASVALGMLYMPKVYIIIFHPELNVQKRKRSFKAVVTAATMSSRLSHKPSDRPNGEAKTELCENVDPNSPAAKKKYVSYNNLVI

[1] = tested on: Aβ1-40 and Aβ1-42 in Fmr-1 KO mouse brain; assay: Brain region Aβ ELISA after fenobam-supplemented diet in Fmr-1 KO mice
Description: Fmr-1 KO mice were fed placebo or fenobam-supplemented lab diet for two months prior to harvesting brains for ELISA assays. Homogenates of hippocampus (H), cortex (Cx) and cerebellum (Cb) were analyzed by ELISA for Aβ1-40 and Aβ1-42. Data were plotted as a percentage of Aβ compared to levels in control mouse hippocampus. C: control, F: Fenobam.
Fmr-1 KO mice were fed placebo or fenobam-supplemented lab diet for one month prior to harvesting brains for ELISA assays. Homogenates of hippocampus (H), cortex (Cx) and cerebellum (Cb) were analyzed by ELISA for Aβ1-40 and Aβ1-42. Data were plotted as a percentage of Aβ compared to levels in control mouse hippocampus.

anxiety in mice = conditions: cited from earlier work
[2] = Tolerability of fenobam-supplemented diet in Tg2576 mice; format: in vivo
Description: (§1) Mice were fed a fenobam-supplemented mouse food that was a purified ingredient diet formulated by Research Diets, Inc. (New Brunswick, N.J.) to match Purina 5015 lab diet in protein, carbohydrate and fat calories. For chronic dosing, the diet was supplemented with 0.2 g fenobam per kg lab diet and colored red for visual differentiation with the placebo food.

rat mGluR8a = rat mGluR8a (Rattus norvegicus, UniProt P70579); conditions: doses up to 10 μm; cited from earlier work
Sequence of rat mGluR8a (P70579 34-908): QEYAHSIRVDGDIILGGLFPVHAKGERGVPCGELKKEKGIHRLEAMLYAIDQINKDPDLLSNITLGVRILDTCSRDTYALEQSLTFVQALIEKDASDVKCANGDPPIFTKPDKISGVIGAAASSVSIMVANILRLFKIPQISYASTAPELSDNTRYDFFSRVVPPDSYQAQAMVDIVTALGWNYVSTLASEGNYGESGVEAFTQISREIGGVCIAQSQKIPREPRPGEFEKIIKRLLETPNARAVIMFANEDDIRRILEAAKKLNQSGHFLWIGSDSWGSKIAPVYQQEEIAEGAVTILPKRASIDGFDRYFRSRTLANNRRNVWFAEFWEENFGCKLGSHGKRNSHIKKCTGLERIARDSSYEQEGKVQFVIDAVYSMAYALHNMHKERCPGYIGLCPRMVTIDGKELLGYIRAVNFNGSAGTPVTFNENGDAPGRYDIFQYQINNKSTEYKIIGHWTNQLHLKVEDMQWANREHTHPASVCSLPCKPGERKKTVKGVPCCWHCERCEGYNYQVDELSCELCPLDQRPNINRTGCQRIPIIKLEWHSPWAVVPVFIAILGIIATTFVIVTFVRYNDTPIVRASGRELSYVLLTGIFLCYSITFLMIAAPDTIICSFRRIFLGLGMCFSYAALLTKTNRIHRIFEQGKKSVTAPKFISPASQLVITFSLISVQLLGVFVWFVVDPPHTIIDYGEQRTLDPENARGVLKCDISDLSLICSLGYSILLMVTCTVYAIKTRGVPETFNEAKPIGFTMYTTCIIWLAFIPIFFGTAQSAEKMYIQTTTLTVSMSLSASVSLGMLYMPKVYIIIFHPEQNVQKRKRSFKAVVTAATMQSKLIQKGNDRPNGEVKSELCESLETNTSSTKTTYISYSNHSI

anxiety in rats = conditions: cited from earlier work
[3] = tested on: Aβ1-40 and Aβ1-42 in Tg2576 mouse brain; assay: Brain Aβ ELISA after chronic fenobam-supplemented diet in Tg2576 mice; conditions: one month
Description: FIG. 12 is a graph illustrating the effects of fenobam treatment in Tg2576 mice. Tg2576 mice were fed placebo or fenobam-supplemented lab diet for one month prior to harvesting brains for ELISA assays. For chronic dosing, the diet was supplemented with 0.2 g fenobam per kg lab diet and colored red for visual differentiation with the placebo food. Whole brain homogenates from control and fenobam-treated mice were analyzed by ELISA for Aβ1-40 (left) and Aβ1-42 (right). Data were plotted as ng/mL Aβ per μg soluble brain lysate. […] The left bar in each group represents Aβ levels in mice fed with placebo food; and the right bar in each group represents Aβ levels in mice fed with fenobam-supplemented food.
as §1
After one month of chronic fenobam dosing, brain tissue was harvested and Aβ levels measured. Specifically assessed by ELISA were human (expressed from the APPSwe transgene) and mouse (endogenous) Aβ1-40 and Aβ1-42 levels.

rat mGluR1a = rat mGluR1a (Rattus norvegicus, UniProt P23385); conditions: doses up to 10 μm; cited from earlier work
Sequence of rat mGluR1a (P23385 19-1199): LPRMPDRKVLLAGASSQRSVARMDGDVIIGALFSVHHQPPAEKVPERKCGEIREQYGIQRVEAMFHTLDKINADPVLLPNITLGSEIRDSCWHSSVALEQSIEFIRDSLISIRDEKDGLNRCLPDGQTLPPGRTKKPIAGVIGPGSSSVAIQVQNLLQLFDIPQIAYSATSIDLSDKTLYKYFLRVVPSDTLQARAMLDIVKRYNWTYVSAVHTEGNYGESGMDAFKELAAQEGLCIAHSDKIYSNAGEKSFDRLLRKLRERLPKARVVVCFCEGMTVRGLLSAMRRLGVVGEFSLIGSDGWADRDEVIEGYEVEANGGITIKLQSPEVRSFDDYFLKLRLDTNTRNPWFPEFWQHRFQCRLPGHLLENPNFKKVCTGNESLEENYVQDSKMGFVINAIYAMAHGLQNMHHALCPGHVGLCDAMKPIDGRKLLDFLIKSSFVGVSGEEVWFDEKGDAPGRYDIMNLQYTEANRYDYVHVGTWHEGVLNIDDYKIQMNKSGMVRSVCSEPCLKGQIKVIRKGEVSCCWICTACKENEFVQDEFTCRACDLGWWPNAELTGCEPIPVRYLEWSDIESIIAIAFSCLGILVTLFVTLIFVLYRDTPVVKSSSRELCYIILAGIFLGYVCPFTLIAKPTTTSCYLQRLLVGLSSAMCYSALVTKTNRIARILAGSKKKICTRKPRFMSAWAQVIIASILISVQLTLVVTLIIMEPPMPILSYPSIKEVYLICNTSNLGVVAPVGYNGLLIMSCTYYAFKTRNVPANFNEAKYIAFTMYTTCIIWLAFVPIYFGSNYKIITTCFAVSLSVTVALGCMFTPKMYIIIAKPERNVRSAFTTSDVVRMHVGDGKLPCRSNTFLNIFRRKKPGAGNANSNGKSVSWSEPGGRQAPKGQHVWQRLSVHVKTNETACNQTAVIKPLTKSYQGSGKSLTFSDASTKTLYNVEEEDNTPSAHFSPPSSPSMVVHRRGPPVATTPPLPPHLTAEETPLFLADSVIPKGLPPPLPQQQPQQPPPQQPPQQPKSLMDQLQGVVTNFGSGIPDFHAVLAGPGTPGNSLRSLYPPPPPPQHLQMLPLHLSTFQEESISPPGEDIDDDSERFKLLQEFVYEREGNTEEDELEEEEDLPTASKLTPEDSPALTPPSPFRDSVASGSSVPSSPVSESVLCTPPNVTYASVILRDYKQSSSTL

mGluR5 = mGluR5 (Homo sapiens, UniProt P41594); conditions: shared allosteric modulatory site; cited from earlier work
anxiety in humans = conditions: cited from earlier work
rat mGluR4a = rat mGluR4a (Rattus norvegicus, UniProt P31423); conditions: doses up to 10 μm; cited from earlier work
Sequence of rat mGluR4a (P31423 33-912): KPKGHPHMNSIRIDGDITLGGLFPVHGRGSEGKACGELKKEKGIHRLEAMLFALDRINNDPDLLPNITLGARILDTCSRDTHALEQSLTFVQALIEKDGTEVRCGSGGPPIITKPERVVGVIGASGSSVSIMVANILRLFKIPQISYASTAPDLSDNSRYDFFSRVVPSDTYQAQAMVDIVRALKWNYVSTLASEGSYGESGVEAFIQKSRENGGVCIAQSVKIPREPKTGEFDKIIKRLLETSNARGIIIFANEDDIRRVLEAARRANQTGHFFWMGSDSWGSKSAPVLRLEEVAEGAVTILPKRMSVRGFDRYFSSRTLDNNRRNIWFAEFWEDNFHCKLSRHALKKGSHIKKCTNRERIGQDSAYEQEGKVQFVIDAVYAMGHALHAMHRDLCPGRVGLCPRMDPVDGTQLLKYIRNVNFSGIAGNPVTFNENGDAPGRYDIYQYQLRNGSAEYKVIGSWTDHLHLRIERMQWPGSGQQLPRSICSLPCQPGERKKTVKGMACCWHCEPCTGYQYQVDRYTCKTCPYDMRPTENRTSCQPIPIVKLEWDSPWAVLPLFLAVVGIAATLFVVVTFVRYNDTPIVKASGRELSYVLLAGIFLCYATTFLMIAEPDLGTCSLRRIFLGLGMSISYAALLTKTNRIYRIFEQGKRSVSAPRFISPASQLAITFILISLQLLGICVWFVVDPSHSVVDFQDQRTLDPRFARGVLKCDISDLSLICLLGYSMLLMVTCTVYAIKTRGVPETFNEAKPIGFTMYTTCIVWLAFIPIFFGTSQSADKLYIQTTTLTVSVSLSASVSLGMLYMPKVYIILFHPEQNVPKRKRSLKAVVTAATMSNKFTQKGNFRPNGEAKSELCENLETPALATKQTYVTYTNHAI

[4] = humans, cited from earlier work
rat mGluR2 = rat mGluR2 (Rattus norvegicus, UniProt P31421); conditions: doses up to 10 μm; cited from earlier work
Sequence of rat mGluR2 (P31421 19-872): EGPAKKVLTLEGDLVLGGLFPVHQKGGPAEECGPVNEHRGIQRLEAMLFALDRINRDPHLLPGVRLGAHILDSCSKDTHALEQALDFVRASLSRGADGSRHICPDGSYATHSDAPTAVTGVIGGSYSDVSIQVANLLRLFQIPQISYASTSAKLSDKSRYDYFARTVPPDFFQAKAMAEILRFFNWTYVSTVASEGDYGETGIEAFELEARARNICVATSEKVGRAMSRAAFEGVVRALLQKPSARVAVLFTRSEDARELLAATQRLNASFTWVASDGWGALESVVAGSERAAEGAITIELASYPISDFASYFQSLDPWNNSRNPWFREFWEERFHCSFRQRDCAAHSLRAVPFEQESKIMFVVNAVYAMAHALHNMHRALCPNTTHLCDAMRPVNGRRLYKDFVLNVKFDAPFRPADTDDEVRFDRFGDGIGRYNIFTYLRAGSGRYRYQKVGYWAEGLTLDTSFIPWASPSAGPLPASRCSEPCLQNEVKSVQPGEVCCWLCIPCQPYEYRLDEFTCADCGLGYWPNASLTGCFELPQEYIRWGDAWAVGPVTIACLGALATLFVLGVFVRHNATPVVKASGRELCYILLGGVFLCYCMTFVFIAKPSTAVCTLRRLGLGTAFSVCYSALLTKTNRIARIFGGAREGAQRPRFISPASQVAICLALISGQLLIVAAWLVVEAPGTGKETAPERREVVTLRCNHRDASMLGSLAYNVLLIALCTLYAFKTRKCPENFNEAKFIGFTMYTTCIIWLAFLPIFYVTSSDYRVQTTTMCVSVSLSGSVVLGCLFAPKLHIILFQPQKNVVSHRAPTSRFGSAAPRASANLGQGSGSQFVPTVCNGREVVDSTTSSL

[5] = tested on: audiogenic seizures in mice; assay: Audiogenic seizure (AGS) testing; format: in vivo, mouse; conditions: treated (immunized or Purina + drug)

## COc1ccc(C[C@H]2NC[C@H](O)[C@H]2OC(C)=O)cc1 [anisomycin]
APP translation in SN
  effect on mGluR activation of APP translation: blocked

## CN1CC(=O)N=C1NC(=O)Nc1cccc(Cl)c1.O=S(=O)(O)O [fenobam]
Rat mGluR7a
  activity toward rat mGluR7a: no activity
[1]; fenobam food 1 month
  decrease in Aβ1-42 in the cortex: 40%
[1]; fenobam food 2 months
  Aβ1-42 in hippocampus and cortex: modest reductions
  decrease in Aβ1-40 in cerebellum: 19%
  decrease in Aβ1-40 in cortex: 26%
  reduction in Aβ1-42 in the cerebellum: 4.2 fold
Anxiety in mice
  effect on anxiety: reduces anxiety
[2]; Tg2576 mice, 0.2 g fenobam per kg diet, chronic dosing
  premature death: no incidences of premature death
[2]; mouse, in vivo
  adverse side effects: No adverse side effects
  weight gain: normal weight gain
Rat mGluR8a
  activity toward rat mGluR8a: no activity
Anxiety in rats
  effect on anxiety: reduces anxiety
[3]; Tg2576, fenobam diet
  mouse Aβ1-42 levels: no change
[3]; Tg2576 males on fenobam food
  mouse Aβ1-40 level in brain: 60 ng/mL/µg
[3]; Tg2576 mice, 0.2 g fenobam per kg diet
  human Aβ levels, control vs fenobam-fed: No change
[3]; male Tg2576, 0.2 g fenobam per kg diet
  decrease in mouse Aβ1-40 levels: 11.5 fold
Rat mGluR1a
  activity toward rat mGluR1a: no activity
mGluR5
  mGluR5 antagonist character: potent and highly selective noncompetitive antagonists
Anxiety in humans
  effect on anxiety: reduces anxiety
Rat mGluR4a
  activity toward rat mGluR4a: no activity
[4]; therapeutically-effective dosages
  side effects: no harmful side effects
[4]
  side effects in one study (Friedmann et al., 1980): psycho-stimulating properties
Rat mGluR2
  activity toward rat mGluR2: no activity
[5]; DS (Ts65Dn) mice
  % Death: 0%
  % WR: 58%
[5]; DS (Ts65Dn) mice, listed as Fenobaum
  % AGS: 0%
[5]; DS (Ts65Dn) mice, listed as fenobaum
  % AGS: attenuates seizures
[5]; WT littermates of DS model
  % AGS: 0%
  % Death: 0%
  % WR: 0%
